Results as given in publication PMC9611727, “Optimization of a Novel Mandelamide-Derived Pyrrolopyrimidine Series of PERK Inhibitors” (Pharmaceutics, 2022).
Read-outs that look alike come from different tables or passages of the source.

Assays:
PERK = molecular target: T1, PERK (Homo sapiens, UniProt Q9NZJ5); test: PERK biochemical LanthaScreen TR-FRET assay (GFP-eIF2a phosphorylation)
T1 sequence (Q9NZJ5 30-1116): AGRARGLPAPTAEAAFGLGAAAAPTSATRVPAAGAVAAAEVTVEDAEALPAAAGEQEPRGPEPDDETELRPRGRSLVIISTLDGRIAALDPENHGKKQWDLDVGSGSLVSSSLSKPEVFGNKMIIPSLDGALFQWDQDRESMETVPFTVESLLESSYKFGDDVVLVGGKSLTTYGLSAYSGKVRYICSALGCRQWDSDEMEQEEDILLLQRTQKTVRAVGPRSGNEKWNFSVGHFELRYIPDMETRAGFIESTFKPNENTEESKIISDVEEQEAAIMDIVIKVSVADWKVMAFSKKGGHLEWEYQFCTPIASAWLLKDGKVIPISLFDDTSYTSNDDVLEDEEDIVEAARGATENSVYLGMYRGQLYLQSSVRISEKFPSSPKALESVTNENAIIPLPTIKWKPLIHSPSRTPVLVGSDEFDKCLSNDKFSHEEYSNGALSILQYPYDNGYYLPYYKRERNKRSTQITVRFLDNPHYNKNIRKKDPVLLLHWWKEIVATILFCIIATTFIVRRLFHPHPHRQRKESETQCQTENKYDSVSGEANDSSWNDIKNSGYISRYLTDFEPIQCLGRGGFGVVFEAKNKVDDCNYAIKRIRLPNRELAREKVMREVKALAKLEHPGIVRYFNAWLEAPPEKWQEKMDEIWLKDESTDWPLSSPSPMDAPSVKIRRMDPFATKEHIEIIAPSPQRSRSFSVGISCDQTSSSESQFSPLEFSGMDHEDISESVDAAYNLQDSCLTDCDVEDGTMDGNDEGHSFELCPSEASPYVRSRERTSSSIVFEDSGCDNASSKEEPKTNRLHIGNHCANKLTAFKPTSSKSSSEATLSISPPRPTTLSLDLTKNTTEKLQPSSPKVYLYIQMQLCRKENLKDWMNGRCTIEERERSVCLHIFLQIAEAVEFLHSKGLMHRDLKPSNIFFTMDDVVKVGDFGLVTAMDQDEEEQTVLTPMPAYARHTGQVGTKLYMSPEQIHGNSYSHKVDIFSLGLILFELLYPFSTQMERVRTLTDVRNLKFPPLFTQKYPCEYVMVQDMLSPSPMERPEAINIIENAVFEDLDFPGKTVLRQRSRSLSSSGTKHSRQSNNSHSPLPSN
Description: Methods used to evaluate biochemical PERK activity are described and published elsewhere. In brief, biochemical PERK activity is evaluated using a LanthaScreenTM ([…]) TR-FRET assay to detect phosphorylation of a GFP-tagged eIF2a substrate (ThermoFisher). Excitation at […] of a terbium chelate donor fluorophore in an eIF2a antibody results in energy transfer to GFP acceptor fluorophore upon eIF2a phosphorylation by PERK. Reaction buffer was composed of 50 mM HEPES (pH 7.4), 10 mM MgCl2, 1 mM EGTA and 0.01% (v/v) BrijTM-35. Reactions were initiated by the addition of substrate and ATP, followed by incubation for 1 h at RT prior to addition of EDTA and the anti-peIF2a antibody. FRET was measured by an EnVision Plate Reader (PerkinElmer). Data were plotted as percent inhibition along a 10-point 3-fold dilution series of inhibitors. IC50 values were calculated using 4-parameter logistical fitting in XLFit.
The PERK activity of analog I was evaluated using cell-free biochemical assays. In these assays, PERK phosphorylation of eIF2a was assessed using a FRET-based labelled protein assay. Compounds were then evaluated for cellular activity by quantifying inhibition of eIF2a phosphorylation in HEK293 cells treated with the ER inducer tunicamycin [7].

[1] = Mouse plasma PK after oral gavage; assay type: in vivo; settings: female, CD1, mouse, mice, 10 mg/kg PO
Description: For PK analysis of pyrrolopyrimidine analogs in mouse, rat, and dog plasma, the oral formulation was prepared as a solution containing 20% (w/v) Captisol in 25 mM NaH2PO4 buffer (pH 2). Compounds were administered orally by gavage at 10 mg/kg to female CD1 mice. After dosing, plasma samples were collected to characterize the PK profiles at 0.25, 0.5, 1, 2, 4, 8, 12 and 24 h post-dose. The plasma concentration of compound was determined by protein precipitation with acetonitrile and liquid chromatography with mass spectrometric detection (LC-MS/MS). Parameters were estimated using Phoenix (WinNonlin) pharmacokinetic software version 6.1.0 using a non-compartmental approach consistent with the oral route of administration. PK analysis of 26 in plasma and pancreas followed a similar analytical method as above, with minor modifications. Compound 26 was suspended in a vehicle consisting of 0.5% methylcellulose (400 cP) and 0.1% Tween80 in water and administered to BALB/c nude mice by oral gavage at 0.3, 1, 3, 10, 30 mg/kg. Plasma and pancreas were sampled from 5 mice per group following a single oral administration at 1, 4, 8, 12, 24 h post-dose.

[2] = Metabolic clearance in hepatocytes, rat; assay type: in vitro ADME; settings: male, Sprague Dawley, cryopreserved rat hepatocytes, read-out: Hepatocyte Clearance (t1/2 min) Rat
Description: Metabolic Clearance in Hepatocytes
Testosterone was obtained from Cerilliant (Round Rock, TX). 7-Hydroxycoumarin was obtained from Sigma-Aldrich (St.
Louis, MO). Ten-donor male pooled cryopreserved human hepatocytes, cryopreserved male Sprague Dawley rat hepatocytes, cryopreserved male ICR/CD-1 mouse hepatocytes, cryopreserved male beagle dog hepatocytes, In VitroGro HI Medium (Incubation), and InVitroGro HT Medium (Thawing) were obtained from Bioreclamation IVT (Baltimore, MD). All solvents were obtained from commercial sources and used without further purification.Test compound was prepared as a 1 mM stock solution in DMSO. A 2 µM solution of test compound and testosterone was prepared (7 - hydroxycoumarin was prepared at 20 µM) in In VitroGro HI Medium (Incubation). These solutions were placed in a sterile incubator set to maintain 37°C, 5% CO2, and 98% humidity to pre-warm. Cryopreserved hepatocytes were prepared at a concentration of 2 x 10^6 living cells/mL in incubation media and placed in the incubator to pre-warn. The compound solutions and hepatocyte mixtures were then combined at a ratio of 1:1 (v:v). The final volume of the reaction mixture was 750 µL, containing 1 µM test compound and 1 x 10^6 cells/mL. The reaction mixture was placed in the incubator on a plate shaker. After 0, 15, 30, 60, 90, and 120 minutes of incubation, 100 µL of reaction mixtures were removed from the incubation plate and mixed with 150 µL of ice-cold acetonitrile in a designated well of a 96-well crash plate. The 96-well crash plate was placed on ice for 15 min, and samples were centrifuged (3,600 rpm, 10 min, 4 °C) to precipitate protein.
The supernatants were diluted 1:1 (v/v) with water containing tolbutamide, (internal standard for positive and negative modes, respectively) in a 96-well shallow injection plate. This plate was sealed for LC-MS analysis. All measurements

[3] = cell-free TR-FRET, GFP-eIF2a substrate, read-out: PERK IC50

Molecule `Cc1nc(N)c2c(-c3ccc(NC(=O)[C@H](O)c4cccc(Cl)c4)cc3F)cn(C)c2n1` [Compound 48] has an IC50 (PERK; bound stated, read-out: biochemical potency) of less than 5 nM, an IC50 (PERK; [3]) of 1 nM and an AUC(0-t) [1] of 10900 ng·h/mL. It also gave a Cmax [1] of 3020 ng/mL, a bioavailability [1] of 70% and a half-life [1] of 2.1 h. It also gave a half-life at 1 µM [2] of 0.417 h.

With `Cc1nc(N)c2c(-c3ccc(NC(=O)[C@H](O)c4cccc(F)c4)c(F)c3C)cn(C)c2n1` [Compound 65] the IC50 (PERK; [3]) was 1.9 nM, the AUC(0-t) [1] was 40100 ng·h/mL and the Cmax [1] was 8150 ng/mL. For the same molecule, the bioavailability [1] was 129%, the half-life [1] was 2.2 h and the half-life at 1 µM [2] was 0.367 h.

In the case of `Cc1nc(N)c2c(-c3ccc(NC(=O)[C@H](O)c4cc(F)cc(C(F)(F)F)c4)cc3C)cn(C)c2n1` [Compound 39], the IC50 (PERK; [3]) is reported as 2.6 nM, the AUC(0-t) [1] is reported as 86400 ng·h/mL and the Cmax [1] is reported as 14300 ng/mL. For the same molecule, the bioavailability [1] was 78%, the half-life [1] was 2.9 h and the half-life at 1 µM [2] was 4.2 h.

`Cc1nc(N)c2c(-c3cc(F)c(NC(=O)[C@H](O)c4cccc(F)c4)cc3C)cn(C)c2n1` [Compound 66] gave an IC50 (PERK; [3]) of 11 nM, an AUC(0-t) [1] of 39800 ng·h/mL and a Cmax [1] of 9610 ng/mL. For the same molecule, the bioavailability [1] was 126%, the half-life [1] was 2 h and the half-life at 1 µM [2] was 0.217 h.

Work on `Cc1nc(N)c2c(-c3ccc(NC(=O)[C@H](O)c4cccc(F)c4)cc3C)cn(C)c2n1` [Compound 24] yielded an IC50 (PERK; [3]) of 20 nM, an AUC(0-t) [1] of 37500 ng·h/mL and a Cmax [1] of 13100 ng/mL. For the same molecule, the bioavailability [1] was 77%, the half-life [1] was 2.1 h and the half-life at 1 µM [2] was 0.383 h.

`Cc1nc(N)c2c(-c3ccc(NC(=O)[C@H](O)c4cccc(F)c4)c(F)c3F)cn(C)c2n1` [Compound 70, (R)-N-(4-(4-amino-2,7-dimethyl-7H-pyrrolo[2,3-d]pyrimidin-5-yl)-2,3-difluorophenyl)-2-(3-fluorophenyl)-2-hydroxyacetamide] gave an IC50 (PERK; [3]) of 1.5 nM, an AUC(0-t) [1] of 32300 ng·h/mL and a Cmax [1] of 9720 ng/mL. It also gave a bioavailability [1] of 117%, a half-life [1] of 2 h and a half-life at 1 µM [2] of 0.25 h.

For `Cc1cc(NC(=O)[C@H](O)c2cccc(F)c2)ccc1-c1cn(C)c2ncnc(N)c12` [Compound 11, (R)-N-(4-(4-amino-7-methyl-7H-pyrrolo[2,3-d]pyrimidin-5-yl)-3-methylphenyl)-2-(3-fluorophenyl)-2-hydroxy acetamide], the IC50 (PERK; [3]) was 2.2 nM.

Work on `Cc1nc(N)c2c(-c3ccc(NC(=O)[C@H](O)c4cccc(C(F)(F)F)c4)cc3C)cn(C)c2n1` [Compound 26] yielded an IC50 (PERK; [3]) of 2.8 nM, an AUC(0-t) [1] of 126000 ng·h/mL and a Cmax [1] of 17200 ng/mL. It also gave a bioavailability [1] of 82%, a half-life [1] of 3.5 h and a half-life at 1 µM [2] of 2.77 h.

`Cc1nc(N)c2c(-c3ccc(NC(=O)[C@H](O)c4cccc(Cl)c4)cc3C)cn(C)c2n1` [Compound 28] showed an IC50 (PERK; [3]) of 1.8 nM, an AUC(0-t) [1] of 65800 ng·h/mL and a Cmax [1] of 14100 ng/mL. For the same molecule, the bioavailability [1] was 84%, the half-life [1] was 2.4 h and the half-life at 1 µM [2] was 0.45 h.

With `Cc1cc(F)cc([C@@H](O)C(=O)Nc2ccc(-c3cn(C)c4nc(C)nc(N)c34)c(C)c2)c1` [Compound 41] the IC50 (PERK; [3]) was 1.4 nM, the AUC(0-t) [1] was 26000 ng·h/mL and the Cmax [1] was 12500 ng/mL. It also gave a bioavailability [1] of 40%, a half-life [1] of 2.7 h and a half-life at 1 µM [2] of 0.267 h.

For `Cc1nc(N)c2c(-c3ccc(NC(=O)[C@H](O)c4cc(F)cc(F)c4)cc3C)cn(C)c2n1` [Compound 38], the IC50 (PERK; [3]) was 1.9 nM, the AUC(0-t) [1] was 28900 ng·h/mL and the Cmax [1] was 8600 ng/mL. For the same molecule, the bioavailability [1] was 94%, the half-life [1] was 2 h and the half-life at 1 µM [2] was 2.02 h.
